Measurements published in US6861223B2, “Ribozyme-encoding DNA and a composition containing an oligonucleotide substrate and a method for measuring transcription rates” (priority 1998, dated 2005).
{FAM} = fluorescein (FAM) reporter dye; {TAMRA} = TAMRA quencher dye

Columns and labels:
substrate RNA SL1 = assay: Real time measurement of fluorescence at cleavage of SL1 by HHR1 transcribed in vitro with T7-RNA polymerase; format: biochemical; conditions: 900 nM SL1, 37° C., 535 nm, T7 in-vitro transcription
Method: A typical 50 μl reaction batch contained: 40 mM tris HCl, pH 8.0, 50 mM NaCl, 2 mM spermidin, 5 mM dithiothreitol, 5 to 25 mM MgCl2, about 500 nM SL1, 0.2 to 2 μM HHR1-DNA or HHR1mut-DNA, 4mM A/C/G/UTP and 50 units of T7-RNA-polymerase. […] In-vitro transcription was started by the addition of the polymerase, and incubation was carried out at 37° C. while the measurement was taken. • 3. Real Time Measurement of Fluorescence at Cleavage of SL1 by HHR1:
The fluorescence of the transcription batches was measured in an automated manner in an ABI Prism 770 spectrometer (Applied Biosystems, USA), the temperature of which could be adjusted. The spectra in the emission wavelength range of the two dyes (FAM, λmax=518 nm and TAMRA, λmax=582 nm) were recorded in intervals of 7 seconds (excitation energy=488 nm). After an incubation time of 3 hours, the collected data were evaluated by the software contained in the equipment. For a real time control of the individual transcriptions, the fluorescence spectra (range of 500 nm to 660 nm) were projected time-dependently over the spectrum of the reference transcription (with non-functional HHR1mut DNA).

FRET substrate (SL1) = assay: Real time FRET measurement of ribozyme cleavage activity (HHR1 with substrate SL1); format: biochemical; conditions: HHR1 4 nM, 37° C.; SL1 vs S1 (conventional gel/autoradiography method)
From the text: As the increase in fluorescence is directly correlated to the cleavage rate, the system is suitable for a sensitive, non-radioactive and fast analysis of ribozyme activities. A FRET substrate (SLI) was constructed on the basis of a known HHR/substrate complex (M. Fedor, O. C. Uhlenbeck, Proc. Natl. Acad. Sci. USA (1990), 87, 1668-1672) and was used for a time-dependent measurement of ribozyme activity (HHR1). […] The Michaelis-Menten parameter of HHR can be obtained in a single experiment by measurement of the cleavage-caused rise in fluorescence at different substrate concentrations.
In order to find out whether the method is suitable for the fast characterization of ribozymes, the activity was measured in parallel batches while various physico-chemical parameters were modified.
FIGS. 3b-d show the dependency of the reaction rate on the pH value, the temperature and the Mg^2+ concentration. […]
Characterization of the cleavage activity at 4 nM HHR1 and 200 or 300 nM SL1. (a) Time-dependent course of cleavage with the reciprocally exponential regression curve (only 1% of all data points measured are depicted). […] (0.0134 nM^−1 min^−1) were also determined.
The real time measurements of the rise in fluorescence caused by the ribozyme were taken in 50 μl reaction batches. The signal measured comprises both the chemical step of cleavage and the release of the cleavage products. […]

| relative fluorescence ΔRn of the fluorophore / fluorescence signal (substrate RNA SL1) | Substance | Kcat and KM values of FRET substrate compared with 32P labeled substrate S1 (FRET substrate (SL1)) |
| --- | --- | --- |
| increased with the incubation times | 5′-TCT AAT ACG ACT CAC TAT A GGGTCCTCTGATGAGGCCGTTAGGCCGAAACTCGT-3′ [HHR1-DNA] | – |
| no influence | 5′-TCT AAT ACG ACT CAC TAT A GGGTCCTCTTAGGAGGCCGTTAGGCCAGAACTCGT-3′ [HHR1mut, reference compound] | – |
| – | 5′-FAM-ACG AGU CAG GAU U-TAMRA-3′ (ACGAGUCAGGAUU; RNA, 5' {FAM}, 3' {TAMRA}, backbone not given here) [SL1, 5′-FAM and 3′-TAMRA labeled substrate RNA (FRET substrate)] | in the same order of magnitude |
